# Columns and labels:
# [1] = biological target: T1, Mitogen-activated protein kinase kinase kinase 5 (Homo sapiens, UniProt Q99683); experiment: Inhibition of ASK1 (unknown origin)
# T1 sequence (Q99683 whole entry): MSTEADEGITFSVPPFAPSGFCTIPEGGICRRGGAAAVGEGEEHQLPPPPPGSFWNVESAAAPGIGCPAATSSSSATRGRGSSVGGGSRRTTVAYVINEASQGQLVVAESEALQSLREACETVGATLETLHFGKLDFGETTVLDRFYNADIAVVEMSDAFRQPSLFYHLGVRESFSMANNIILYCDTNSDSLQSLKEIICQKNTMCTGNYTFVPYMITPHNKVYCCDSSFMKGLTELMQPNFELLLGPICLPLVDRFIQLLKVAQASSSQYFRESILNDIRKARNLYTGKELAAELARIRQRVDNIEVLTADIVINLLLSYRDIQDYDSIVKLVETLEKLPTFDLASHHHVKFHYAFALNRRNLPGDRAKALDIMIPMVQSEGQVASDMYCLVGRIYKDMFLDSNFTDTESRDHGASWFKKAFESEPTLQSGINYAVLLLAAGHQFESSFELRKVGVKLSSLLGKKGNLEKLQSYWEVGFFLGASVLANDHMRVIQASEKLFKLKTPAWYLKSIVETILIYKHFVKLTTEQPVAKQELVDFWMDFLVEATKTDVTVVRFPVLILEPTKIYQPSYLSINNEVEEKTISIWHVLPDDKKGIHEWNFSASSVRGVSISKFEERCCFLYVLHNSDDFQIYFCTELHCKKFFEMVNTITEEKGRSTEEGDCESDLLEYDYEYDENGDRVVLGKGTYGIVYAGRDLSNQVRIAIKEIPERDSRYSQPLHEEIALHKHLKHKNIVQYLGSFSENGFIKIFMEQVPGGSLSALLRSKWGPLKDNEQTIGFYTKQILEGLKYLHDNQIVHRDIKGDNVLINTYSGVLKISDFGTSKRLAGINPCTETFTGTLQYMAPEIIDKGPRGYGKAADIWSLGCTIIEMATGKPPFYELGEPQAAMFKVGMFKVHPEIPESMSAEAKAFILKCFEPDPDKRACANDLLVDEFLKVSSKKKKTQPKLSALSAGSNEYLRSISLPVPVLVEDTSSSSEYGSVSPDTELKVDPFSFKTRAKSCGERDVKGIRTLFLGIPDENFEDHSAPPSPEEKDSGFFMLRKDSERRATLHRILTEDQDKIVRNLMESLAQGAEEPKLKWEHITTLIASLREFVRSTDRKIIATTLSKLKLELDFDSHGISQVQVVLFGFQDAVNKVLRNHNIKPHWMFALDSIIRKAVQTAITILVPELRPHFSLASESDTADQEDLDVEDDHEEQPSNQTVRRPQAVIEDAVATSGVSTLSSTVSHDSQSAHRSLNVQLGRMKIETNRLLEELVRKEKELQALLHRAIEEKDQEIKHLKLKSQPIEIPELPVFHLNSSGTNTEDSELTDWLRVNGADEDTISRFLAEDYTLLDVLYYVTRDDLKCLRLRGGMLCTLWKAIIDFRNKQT
# [2] = biological target: Serine/threonine-protein kinase D2 (Homo sapiens, UniProt Q9BZL6); experiment: Inhibition of recombinant human full-length GST-tagged PRKD2 expressed in baculovirus expression system
# [3] = biological target: Casein kinase I isoform gamma-3 (Homo sapiens, UniProt Q9Y6M4); experiment: Inhibition of CK1gamma3 (unknown origin)
# Homo sapiens [4] = species: Homo sapiens; experiment: Selectivity ratio of IC50 for inhibition of CK1gamma1 (unknown origin) to IC50 for inhibition of ASK1 (unknown origin)
# [5] = biological target: Casein kinase I isoform gamma-1 (Homo sapiens, UniProt Q9HCP0); experiment: Inhibition of CK1gamma1 (unknown origin)
# MDR1 (human) = experiment: Permeability across apical to basolateral side in pig LLC-PK1 cells expressing human MDR1; type: ADME, cell-based, Sus scrofa; conditions: read-out: permeability
# Homo sapiens [6] = species: Homo sapiens; experiment: Selectivity ratio of IC50 for inhibition of recombinant human full-length GST-tagged PKCmu expressed in baculovirus expression system to IC50 for inhibition of ASK1 (unknown origin)
# Homo sapiens [7] = species: Homo sapiens; experiment: Selectivity ratio of IC50 for inhibition of recombinant human full-length GST-tagged RSK3 expressed in insect cells to IC50 for inhibition of ASK1 (unknown origin)
# Homo sapiens [8] = species: Homo sapiens; experiment: Selectivity ratio of IC50 for inhibition of CK1gamma3 (unknown origin) to IC50 for inhibition of ASK1 (unknown origin)
# Homo sapiens [9] = species: Homo sapiens; experiment: Selectivity ratio of IC50 for inhibition of recombinant human full-length GST-tagged PRKD2 expressed in baculovirus expression system to IC50 for inhibition of ASK1 (unknown origin)
# [10] = biological target: Serine/threonine-protein kinase D1 (Homo sapiens, UniProt Q15139); experiment: Inhibition of recombinant human full-length GST-tagged PKCmu expressed in baculovirus expression system
# [11] = biological target: Ribosomal protein S6 kinase alpha-3 (Homo sapiens, UniProt P51812); experiment: Inhibition of recombinant human full-length His-tagged RSK2 expressed in baculovirus expression system
# [12] = biological target: Ribosomal protein S6 kinase alpha-6 (Homo sapiens, UniProt Q9UK32); experiment: Inhibition of recombinant human full-length GST-tagged RSK4 expressed in baculovirus expression system
# Homo sapiens [13] = species: Homo sapiens; experiment: Selectivity ratio of IC50 for inhibition of recombinant human GST-tagged LRRK2 expressed in baculovirus expression system to IC50 for inhibition of ASK1 (unknown origin)
# Homo sapiens [14] = species: Homo sapiens; experiment: Selectivity ratio of IC50 for inhibition of recombinant human full-length His-tagged RSK2 expressed in baculovirus expression system to IC50 for inhibition of ASK1 (unknown origin)
# [15] = biological target: T1, Mitogen-activated protein kinase kinase kinase 5; experiment: Inhibition of ASK1 (unknown origin) by cell based assay
# [16] = biological target: T1, Mitogen-activated protein kinase kinase kinase 5; experiment: Binding affinity to ASK1 (unknown origin)
# [17] = Drug absorption in male Sprague-Dawley rat at 1 mg/kg, […] by LC-MS/MS analysis; type: ADME, organism-based; conditions: in vivo, read-out: Drug absorption
# [18] = Aqueous solubility of the compound in JP1 fluid at pH 1.2; type: physicochemical
# Homo sapiens [19] = species: Homo sapiens; experiment: Selectivity ratio of IC50 for inhibition of recombinant human full-length GST-tagged RSK4 expressed in baculovirus expression system to IC50 for inhibition of ASK1 (unknown origin)
# [20] = biological target: Leucine-rich repeat serine/threonine-protein kinase 2 (Homo sapiens, UniProt Q5S007); experiment: Inhibition of recombinant human GST-tagged LRRK2 expressed in baculovirus expression system
# [21] = Oral bioavailability in male Sprague-Dawley rat at 5 mg/kg; type: ADME, organism-based; conditions: in vivo
# [22] = biological target: Ribosomal protein S6 kinase alpha-2 (Homo sapiens, UniProt Q15349); experiment: Inhibition of recombinant human full-length GST-tagged RSK3 expressed in insect cells
# [23] = Aqueous solubility of the compound in JP2 fluid at […]; type: physicochemical
# [24] = Metabolic stability in human hepatocytes assessed as hepatic extraction ratio; type: ADME, cell-based, Hepatocyte; conditions: read-out: ERH
# MAP kinase p38 = MAP kinase p38 (Homo sapiens, UniProt O15264+Q15759+Q16539+P53778); experiment: Inhibition of p38 (unknown origin); type: protein assay
# [25] = biological target: T2, Receptor tyrosine-protein kinase erbB-4 (Homo sapiens, UniProt Q15303); experiment: Inhibition of HER4 (unknown origin)
# [26] = biological target: Tyrosine-protein kinase Mer (Homo sapiens, UniProt Q12866); experiment: Inhibition of MER (unknown origin)
# [27] = biological target: Cyclin-dependent kinase 2 (Homo sapiens, UniProt P24941); experiment: Inhibition of CDK2 (unknown origin)
# [28] = Inhibition of GSK3 (unknown origin); design: species or system Homo sapiens
# [29] = biological target: 5'-AMP-activated protein kinase catalytic subunit alpha-1 (Homo sapiens, UniProt Q13131); experiment: Inhibition of PRKKA1 (unknown origin)
# [30] = biological target: T2, Receptor tyrosine-protein kinase erbB-4; experiment: Inhibition of ERBB4 (unknown origin)
# [31] = biological target: Tyrosine-protein kinase ITK/TSK (Homo sapiens, UniProt Q08881); experiment: Inhibition of ITK (unknown origin)
# [32] = biological target: Proto-oncogene tyrosine-protein kinase receptor Ret (Homo sapiens, UniProt P07949); experiment: Inhibition of RET (unknown origin)
# [33] = biological target: Rho-associated protein kinase 1 (Homo sapiens, UniProt Q13464); experiment: Inhibition of ROCK1 (unknown origin)
# Ephrin type-A receptor 3 = Ephrin type-A receptor 3 (Homo sapiens, UniProt P29320); experiment: Inhibition of EPHA3 (unknown origin)
# [34] = biological target: Epidermal growth factor receptor (Homo sapiens, UniProt P00533); experiment: Inhibition of EGFR (unknown origin)
# Epidermal growth factor receptor, sequence (P00533 whole entry): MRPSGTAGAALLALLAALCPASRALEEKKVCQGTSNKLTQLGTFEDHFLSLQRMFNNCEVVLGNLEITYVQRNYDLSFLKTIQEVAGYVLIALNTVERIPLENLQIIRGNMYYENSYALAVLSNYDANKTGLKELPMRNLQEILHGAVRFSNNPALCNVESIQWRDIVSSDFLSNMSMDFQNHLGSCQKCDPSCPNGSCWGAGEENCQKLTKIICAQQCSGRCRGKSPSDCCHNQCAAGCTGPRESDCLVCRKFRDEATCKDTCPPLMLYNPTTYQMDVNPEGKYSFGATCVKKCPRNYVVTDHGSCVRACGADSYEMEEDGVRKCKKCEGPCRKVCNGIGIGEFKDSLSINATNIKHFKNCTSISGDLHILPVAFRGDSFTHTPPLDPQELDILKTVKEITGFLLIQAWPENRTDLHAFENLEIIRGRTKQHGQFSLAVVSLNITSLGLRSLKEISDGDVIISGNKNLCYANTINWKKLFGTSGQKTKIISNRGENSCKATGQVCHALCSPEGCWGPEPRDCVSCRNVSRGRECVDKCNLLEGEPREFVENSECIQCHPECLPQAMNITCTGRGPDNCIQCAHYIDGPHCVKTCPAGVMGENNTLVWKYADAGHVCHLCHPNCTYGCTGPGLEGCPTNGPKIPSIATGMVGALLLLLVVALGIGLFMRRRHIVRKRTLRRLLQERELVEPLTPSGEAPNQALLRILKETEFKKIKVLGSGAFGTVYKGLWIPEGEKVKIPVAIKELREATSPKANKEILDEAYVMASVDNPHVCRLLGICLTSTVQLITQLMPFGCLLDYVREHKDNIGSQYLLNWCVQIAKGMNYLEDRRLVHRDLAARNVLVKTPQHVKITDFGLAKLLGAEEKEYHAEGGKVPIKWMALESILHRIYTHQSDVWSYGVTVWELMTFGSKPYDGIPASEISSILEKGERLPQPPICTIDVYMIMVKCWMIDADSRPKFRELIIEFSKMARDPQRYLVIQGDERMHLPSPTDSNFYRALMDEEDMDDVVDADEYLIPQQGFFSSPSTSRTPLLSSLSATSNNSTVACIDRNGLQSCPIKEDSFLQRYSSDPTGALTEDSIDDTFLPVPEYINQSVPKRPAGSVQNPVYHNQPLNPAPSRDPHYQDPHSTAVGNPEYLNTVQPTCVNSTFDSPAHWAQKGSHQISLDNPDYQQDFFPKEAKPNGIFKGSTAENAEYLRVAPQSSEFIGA
# T2 sequence (Q15303 whole entry): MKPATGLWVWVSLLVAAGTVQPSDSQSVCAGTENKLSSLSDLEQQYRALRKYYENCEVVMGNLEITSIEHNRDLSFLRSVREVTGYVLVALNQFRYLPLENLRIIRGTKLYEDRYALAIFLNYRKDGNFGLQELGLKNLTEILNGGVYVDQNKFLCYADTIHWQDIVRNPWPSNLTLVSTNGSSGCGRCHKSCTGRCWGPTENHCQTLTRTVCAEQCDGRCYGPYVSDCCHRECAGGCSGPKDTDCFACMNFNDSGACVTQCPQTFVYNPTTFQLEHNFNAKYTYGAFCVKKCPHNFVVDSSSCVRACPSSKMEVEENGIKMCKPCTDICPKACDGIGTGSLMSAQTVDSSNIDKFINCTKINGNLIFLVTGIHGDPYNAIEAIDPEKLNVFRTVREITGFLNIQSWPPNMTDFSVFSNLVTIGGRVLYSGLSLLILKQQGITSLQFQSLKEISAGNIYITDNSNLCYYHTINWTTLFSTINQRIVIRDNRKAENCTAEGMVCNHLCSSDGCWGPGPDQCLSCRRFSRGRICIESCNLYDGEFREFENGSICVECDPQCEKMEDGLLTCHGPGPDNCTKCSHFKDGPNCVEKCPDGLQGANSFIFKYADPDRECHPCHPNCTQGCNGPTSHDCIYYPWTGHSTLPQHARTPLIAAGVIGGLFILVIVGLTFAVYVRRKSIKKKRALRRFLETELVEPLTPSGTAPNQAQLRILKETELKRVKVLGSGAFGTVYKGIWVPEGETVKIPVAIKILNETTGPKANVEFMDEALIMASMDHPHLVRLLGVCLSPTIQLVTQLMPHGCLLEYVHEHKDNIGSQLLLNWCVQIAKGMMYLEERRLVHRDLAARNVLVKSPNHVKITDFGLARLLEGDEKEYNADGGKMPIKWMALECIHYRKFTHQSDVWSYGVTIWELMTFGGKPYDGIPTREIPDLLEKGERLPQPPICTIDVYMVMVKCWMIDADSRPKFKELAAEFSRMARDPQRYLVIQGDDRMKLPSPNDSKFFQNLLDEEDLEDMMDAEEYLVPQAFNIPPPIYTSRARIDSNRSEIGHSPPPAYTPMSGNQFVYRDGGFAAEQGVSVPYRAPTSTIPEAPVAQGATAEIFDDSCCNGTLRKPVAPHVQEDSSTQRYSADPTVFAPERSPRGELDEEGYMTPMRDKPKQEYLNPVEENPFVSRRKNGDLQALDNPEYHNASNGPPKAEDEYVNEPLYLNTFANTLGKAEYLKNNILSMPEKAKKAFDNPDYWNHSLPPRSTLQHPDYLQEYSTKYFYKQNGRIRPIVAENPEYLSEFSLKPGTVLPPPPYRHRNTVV
# Proto-oncogene tyrosine-protein kinase receptor Ret, sequence (P07949 whole entry): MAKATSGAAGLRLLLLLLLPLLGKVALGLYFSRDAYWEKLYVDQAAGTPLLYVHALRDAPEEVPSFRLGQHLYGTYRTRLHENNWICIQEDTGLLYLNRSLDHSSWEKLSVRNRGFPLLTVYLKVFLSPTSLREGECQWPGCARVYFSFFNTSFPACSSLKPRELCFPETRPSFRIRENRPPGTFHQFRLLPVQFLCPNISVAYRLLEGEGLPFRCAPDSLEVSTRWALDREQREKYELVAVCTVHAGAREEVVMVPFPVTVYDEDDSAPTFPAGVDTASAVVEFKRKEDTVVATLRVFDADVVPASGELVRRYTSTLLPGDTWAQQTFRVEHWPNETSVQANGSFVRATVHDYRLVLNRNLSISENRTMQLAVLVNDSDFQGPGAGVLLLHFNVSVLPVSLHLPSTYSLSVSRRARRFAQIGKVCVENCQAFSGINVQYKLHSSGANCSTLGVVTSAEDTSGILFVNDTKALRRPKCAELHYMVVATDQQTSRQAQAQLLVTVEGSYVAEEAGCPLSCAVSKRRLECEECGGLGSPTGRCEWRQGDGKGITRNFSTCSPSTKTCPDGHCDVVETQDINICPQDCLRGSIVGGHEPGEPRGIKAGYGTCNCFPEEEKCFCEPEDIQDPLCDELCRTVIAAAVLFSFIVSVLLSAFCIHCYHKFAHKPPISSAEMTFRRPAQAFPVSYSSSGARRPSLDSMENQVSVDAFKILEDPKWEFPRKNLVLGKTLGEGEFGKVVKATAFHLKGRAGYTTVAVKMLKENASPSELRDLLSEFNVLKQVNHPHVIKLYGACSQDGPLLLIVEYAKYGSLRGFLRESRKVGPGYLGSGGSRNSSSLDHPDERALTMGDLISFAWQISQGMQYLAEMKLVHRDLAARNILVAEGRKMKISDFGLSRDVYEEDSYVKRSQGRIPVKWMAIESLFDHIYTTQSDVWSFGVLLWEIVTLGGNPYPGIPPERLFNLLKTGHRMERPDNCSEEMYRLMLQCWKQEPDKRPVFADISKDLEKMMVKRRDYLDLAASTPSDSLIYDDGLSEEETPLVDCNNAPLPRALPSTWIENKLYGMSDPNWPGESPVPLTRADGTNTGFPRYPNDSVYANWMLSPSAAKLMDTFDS
# Rho-associated protein kinase 1, sequence (Q13464 whole entry): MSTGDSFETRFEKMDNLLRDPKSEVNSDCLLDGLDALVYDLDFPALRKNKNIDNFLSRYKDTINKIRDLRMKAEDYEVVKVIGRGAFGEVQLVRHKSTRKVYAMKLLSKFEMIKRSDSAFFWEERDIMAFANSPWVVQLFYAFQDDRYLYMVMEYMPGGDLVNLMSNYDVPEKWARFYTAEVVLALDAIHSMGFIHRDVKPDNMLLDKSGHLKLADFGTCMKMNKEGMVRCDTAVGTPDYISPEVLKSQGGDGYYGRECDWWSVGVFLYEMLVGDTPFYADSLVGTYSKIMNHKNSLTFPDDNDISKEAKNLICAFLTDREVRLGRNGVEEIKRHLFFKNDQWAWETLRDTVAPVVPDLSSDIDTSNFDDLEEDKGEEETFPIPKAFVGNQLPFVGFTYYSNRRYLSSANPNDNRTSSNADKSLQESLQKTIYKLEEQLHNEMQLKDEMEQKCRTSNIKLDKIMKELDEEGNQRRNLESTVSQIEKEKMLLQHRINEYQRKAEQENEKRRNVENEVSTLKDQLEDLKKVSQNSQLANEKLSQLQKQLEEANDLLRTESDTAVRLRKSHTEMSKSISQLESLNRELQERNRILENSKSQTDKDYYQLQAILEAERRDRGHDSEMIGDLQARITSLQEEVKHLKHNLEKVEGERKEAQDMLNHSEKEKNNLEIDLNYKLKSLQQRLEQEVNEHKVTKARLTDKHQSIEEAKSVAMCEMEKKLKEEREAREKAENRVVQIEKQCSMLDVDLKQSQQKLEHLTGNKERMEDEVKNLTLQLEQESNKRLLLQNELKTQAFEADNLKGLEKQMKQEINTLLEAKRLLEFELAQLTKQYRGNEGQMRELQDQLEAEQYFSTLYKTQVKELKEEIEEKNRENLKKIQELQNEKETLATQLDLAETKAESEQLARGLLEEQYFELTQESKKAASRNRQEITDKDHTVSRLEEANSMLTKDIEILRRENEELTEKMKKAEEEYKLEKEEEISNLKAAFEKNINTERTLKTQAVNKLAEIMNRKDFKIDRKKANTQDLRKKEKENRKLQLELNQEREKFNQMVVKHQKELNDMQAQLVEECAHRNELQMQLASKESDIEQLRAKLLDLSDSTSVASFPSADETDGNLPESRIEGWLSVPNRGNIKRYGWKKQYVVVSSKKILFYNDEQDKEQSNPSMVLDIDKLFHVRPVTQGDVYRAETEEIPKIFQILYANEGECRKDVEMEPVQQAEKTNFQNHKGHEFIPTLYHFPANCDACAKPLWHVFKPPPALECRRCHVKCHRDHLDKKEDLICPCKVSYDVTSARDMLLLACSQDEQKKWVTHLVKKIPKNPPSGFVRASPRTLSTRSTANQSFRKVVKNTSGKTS
smiles,measurement,setting,value
CC(C)n1cnnc1-c1cccc(NC(=O)[C@H]2CN(c3ccc(C4CC4)nc3)CCO2)n1,IC50,[1],0.017 µM
same,IC50,[2],≤ 0.5 µM
same,IC50,[3],≤ 0.5 µM
same,Ratio IC50,Homo sapiens [4],< 20
same,IC50,[5],≤ 0.5 µM
same,Papp A→B,MDR1 (human),10.7 ×10⁻⁶ cm/s
same,Ratio IC50,Homo sapiens [6],< 20
same,Ratio IC50,Homo sapiens [7],< 20
same,Ratio IC50,Homo sapiens [8],< 20
same,Ratio IC50,Homo sapiens [9],< 20
same,IC50,[10],≤ 0.5 µM
same,IC50,[11],≤ 0.5 µM
same,IC50,[12],≤ 0.5 µM
same,Ratio IC50,Homo sapiens [13],< 20
same,Ratio IC50,Homo sapiens [14],< 20
same,EC50,[15],0.024 µM
same,Kd,[16],< 0.001 µM
same,Fa,[17],52%
same,solubility,[18],> 200 µM
same,Ratio IC50,Homo sapiens [19],< 20
same,IC50,[20],≤ 0.5 µM
same,bioavailability,[21],18%
same,IC50,[22],≤ 0.5 µM
same,solubility,[23],101 µM
same,hepatic extraction ratio,[24],0.32
CC(C)n1cnnc1-c1cccc(N2Cc3ccccc3C2=O)n1,IC50,[1],0.014 µM
same,pIC50,MAP kinase p38,< 4.7
same,IC50,[25],> 20 µM
same,IC50,[26],0.631 µM
same,IC50,[27],0.0631 µM
same,pIC50,[28],7.4
same,IC50,[29],0.2 µM
same,IC50,[30],> 20 µM
same,IC50,[31],1.26 µM
same,IC50,[32],0.0631 µM
same,IC50,[33],1 µM
same,IC50,Ephrin type-A receptor 3,> 20 µM
same,IC50,[34],> 20 µM
CC(C)n1cnnc1-c1cccc(NC(=O)C2CN(c3ccccc3)CCO2)n1 (centres undefined),IC50,[1],0.13 µM
CC(C)n1cnnc1-c1cccc(NC(=O)C2CN(c3cccnc3)CCO2)n1 (centres undefined),IC50,[1],0.031 µM
CC(C)n1cnnc1-c1cccc(NC(=O)C2CN(C)CCO2)n1 (centres undefined),IC50,[1],0.002 µM
CC(C)n1cnnc1-c1cccc(NC(=O)C2CCCCO2)n1 (centres undefined),IC50,[1],0.27 µM
same,pIC50,MAP kinase p38,< 4.7
same,IC50,[25],> 20 µM
same,IC50,[26],> 20 µM
same,IC50,[27],3.16 µM
same,pIC50,[28],6.2
same,IC50,[29],> 20 µM
same,IC50,[30],> 20 µM
same,IC50,[31],> 20 µM
same,IC50,[32],> 20 µM
same,IC50,[33],> 20 µM
same,IC50,Ephrin type-A receptor 3,> 20 µM
same,IC50,[34],> 20 µM

# Reference: ChEMBL document CHEMBL4725315, “Structure-guided optimization of a novel class of ASK1 inhibitors with increased sp character and an exquisite selectivity profile” (Bioorg Med Chem Lett, 2020)
